Experimental findings from US12673041B2, “4-aminobut-2-enamide derivatives and salt thereof” (TAIHO PHARMACEUTICAL CO., LTD., priority 2019, dated 2026) are described below.

By IC50 is commonly meant the concentration at which inhibition is half-maximal.

For one test, the system named is MIA PaCa-2 cells. The test can be described thus: Growth inhibition activity on KRAS-G12C mutant cell line (MIA PaCa-2). In kind it is cell-based. The note with it: Homo sapiens, 72 h; MIA PaCa-2, 3-day culture, CellTiter-Glo 3D. An outline of the steps:
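KRAS-G12C human pancreatic MIA PaCa-2 cells in RPMI1640 + 10% FBS, seeded in U-bottom plates and grown 1 day, then exposed to compound (0.2% DMSO final) for 3 days at 37 °C, 5% CO2. Viability by CellTiter-Glo 3D luminescence; IC50 from inhibition relative to untreated wells.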
In general terms: In ATP-based viability assays light output follows the ATP content of the culture.

The target in test [1] is Gppcp-bound recombinant K-Ras4B G12C mutant protein (amino acids 1-169, C51S/C80L/C118S) (Homo sapiens, UniProt P01116, C118S/C51S/C80L/G12C). The test can be described thus: KRASG12C binding assay (LC-MS compound binding rate). The note with it: test compound final concentration 0.5 μM, 25° C., 1 hour. The gist of the method:
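Gppcp-bound K-Ras4B G12C (aa 1-169, C51S/C80L/C118S) at 50 nM in 1×TBS, 0.1 mM TCEP, 0.25 mM MgCl2, 50 μM Gppcp was incubated 1 hour at 25° C with compound at 0.5 μM final. Intact-protein LC-MS gave binding rate as single-adduct signal over total KRAS signal, graded A (≥80%) to E (<20%).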

Test [2] addresses T1, GMPPNP-bound KRAS G12C protein and cRAF RAS-binding domain (cRAF-RBD) (Homo sapiens, UniProt P01116, G12C).
T1 construct: made in house; host or cells: E. coli
Description: Inhibitory activity on interaction between KRAS G12C and cRAF (Alpha technology). Type of test: biochemical. The note with it: GMPPNP-bound KRAS G12C incubated with compound at 25° C. for 1 hour, then cRAF-RBD, Alpha signal; read-out: IC50. An outline of the steps: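 GMPPNP-loaded His-KRAS G12C (aa 1-169) preincubated 1 h at 25 °C with compound (pH 7.5 Tris, 1 mM MgCl2, TCEP, Tween 20), then cRAF-RBD (aa 50-132) and Alpha reagents added for 1.5 h at RT. Inhibition scaled between DMSO (0%) and GDP-bound KRAS (100%); IC50 by curve fitting.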

For `CO[C@H]1CC[C@H](NC/C=C/C(=O)Nc2c(F)cc(C(=O)c3cnc4c(-c5cc6ncn(C)c6cc5C(F)(F)F)cccn34)cc2F)CC1` [Example 68, (E)-N-(2,6-difluoro-4-(8-(1-methyl-6-(trifluoromethyl)-1H-benzo[d]imidazol-5-yl)imidazo[1,2-a]pyridine-3-carbonyl)phenyl)-4-(((1r,4r)-4-methoxycyclohexyl)amino)but-2-enamide], the figures for the IC50 (in the test on MIA PaCa-2 cells; in test [2]) were 240 nM and 57 nM, respectively. In addition, in test [1], the binding rate result is “B (a binding rate of 60% or more and less than 80% is rated “B”)”.

With `CO[C@H]1CC[C@H](NC/C=C/C(=O)Nc2c(F)cc(C(=O)c3ccc4c(-c5cc6ncn(C)c6cc5C(F)(F)F)cccn34)cc2F)CC1` [Example 70, (E)-N-(2,6-difluoro-4-(8-(1-methyl-6-(trifluoromethyl)-1H-benzo[d]imidazol-5-yl)indolizine-3-carbonyl)phenyl)-4-(((1r,4r)-4-methoxycyclohexyl)amino)but-2-enamide], the IC50 in the test on MIA PaCa-2 cells stood at 72 nM; in test [2], 27 nM. Further, the binding rate result in test [1] is reported as “A (A binding rate of 80% or more is rated “A”)”.

Take `Cc1cc2c(cc1-c1cccn3c(C(=O)c4cc(F)c(NC(=O)/C=C/CNC(C)(C)C)c(F)c4)ccc13)ncn2C` [Example 72, (E)-4-(tert-butylamino)-N-(4-(8-(1,6-dimethyl-1H-benzo[d]imidazol-5-yl)indolizine-3-carbonyl)-2,6-difluorophenyl)but-2-enamide]: the results for the IC50 (with MIA PaCa-2 cells; in test [2]) were 200 nM and 34 nM, respectively. In addition, in test [1], the binding rate result was “A (A binding rate of 80% or more is rated “A”)”.

In the case of `CO[C@H]1CC[C@H](NC/C=C/C(=O)Nc2c(F)cc(C(=O)c3ccc4c(-c5cc6ncn(C)c6cc5C)cccn34)cc2F)CC1` [Example 73, (E)-N-(4-(8-(1,6-dimethyl-1H-benzo[d]imidazol-5-yl)indolizine-3-carbonyl)-2,6-difluorophenyl)-4-(((1r,4r)-4-methoxycyclohexyl)amino)but-2-enamide], the half-maximal inhibitory concentration (IC50) in the test on MIA PaCa-2 cells amounted to 280 nM; in test [2], 32 nM. Besides, the binding rate entry in test [1] is “A (A binding rate of 80% or more is rated “A”)”.

Consider `CO[C@H]1CC[C@H](N(C)C/C=C/C(=O)Nc2ccc(C(=O)c3ccc4c(-c5cc6ncn(C)c6cc5C(F)(F)F)cccn34)cc2C#N)CC1` [Example 78, (E)-N-(2-cyano-4-(8-(1-methyl-6-(trifluoromethyl)-1H-benzo[d]imidazol-5-yl)indolizine-3-carbonyl)phenyl)-4-(((1r,4r)-4-methoxycyclohexyl)(methyl)amino)but-2-enamide], for which the figures for the IC50 (in the test on MIA PaCa-2 cells; in test [2]) were 400 nM and 96 nM, respectively. Also, the binding rate result in test [1] is “C (a binding rate of 40% or more and less than 60% is rated “C”)”.

Consider `CO[C@H]1CC[C@H](NC/C=C/C(=O)Nc2ccc(C(=O)c3cnc4c(-c5cc6ncn(C)c6cc5C(F)(F)F)cccn34)cc2C#N)CC1` [Example 80, (E)-N-(2-cyano-4-(8-(1-methyl-6-(trifluoromethyl)-1H-benzo[d]imidazol-5-yl)imidazo[1,2-a]pyridine-3-carbonyl)phenyl)-4-(((1r,4r)-4-methoxycyclohexyl)amino)but-2-enamide], for which the IC50 with MIA PaCa-2 cells is 190 nM; in test [2], 27 nM. For the same compound, the binding rate result in test [1] is reported as “A (A binding rate of 80% or more is rated “A”)”.

As for `COc1cc2c(cc1-c1cccn3c(C(=O)c4ccc(NC(=O)/C=C/CN[C@H]5CC[C@H](OC)CC5)c(C#N)c4)ccc13)ncn2C` [Example 81, (E)-N-(2-cyano-4-(8-(6-methoxy-1-methyl-1H-benzo[d]imidazol-5-yl)indolizine-3-carbonyl)phenyl)-4-(((1r,4r)-4-methoxycyclohexyl)amino)but-2-enamide], the figures for the IC50 (in the test with MIA PaCa-2 cells; in test [2]) were 70 nM and 21 nM, respectively. Also, in test [1], the binding rate entry is given as “A (A binding rate of 80% or more is rated “A”)”.
